Assay results from patent US8741892B2, “Compounds” (Boehringer Ingelheim International GmbH, priority 2011, dated 2014).
pEC50: −log10 of the molar value.

Target: T1, human recombinant mGluR5 (Homo sapiens, UniProt P41594)
T1 construct: expressed in transfected cells; host or cells: HEK 293
Assay: positive modulation of mGluR5, calcium based FLIPR assay
Conditions: HEK 293 cell line expressing human recombinant mGluR5; EC50 of the modulation from peak Ca fluorescence signal after glutamate at approx. 5% basal stimulation
Procedure, shortened: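 HEK 293 cells expressing human recombinant mGluR5, Calcium-4 dye-loaded in Ringer solution pH 7.4. Compound (1% DMSO final) preincubated 5 min, then glutamate at ~5% of maximal effect added; peak Ca2+ fluorescence gives EC50 by nonlinear regression, normalized to DMSO (100%) and 10 μM CDPPB (200%) controls.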

T1 sequence (P41594 21-1212): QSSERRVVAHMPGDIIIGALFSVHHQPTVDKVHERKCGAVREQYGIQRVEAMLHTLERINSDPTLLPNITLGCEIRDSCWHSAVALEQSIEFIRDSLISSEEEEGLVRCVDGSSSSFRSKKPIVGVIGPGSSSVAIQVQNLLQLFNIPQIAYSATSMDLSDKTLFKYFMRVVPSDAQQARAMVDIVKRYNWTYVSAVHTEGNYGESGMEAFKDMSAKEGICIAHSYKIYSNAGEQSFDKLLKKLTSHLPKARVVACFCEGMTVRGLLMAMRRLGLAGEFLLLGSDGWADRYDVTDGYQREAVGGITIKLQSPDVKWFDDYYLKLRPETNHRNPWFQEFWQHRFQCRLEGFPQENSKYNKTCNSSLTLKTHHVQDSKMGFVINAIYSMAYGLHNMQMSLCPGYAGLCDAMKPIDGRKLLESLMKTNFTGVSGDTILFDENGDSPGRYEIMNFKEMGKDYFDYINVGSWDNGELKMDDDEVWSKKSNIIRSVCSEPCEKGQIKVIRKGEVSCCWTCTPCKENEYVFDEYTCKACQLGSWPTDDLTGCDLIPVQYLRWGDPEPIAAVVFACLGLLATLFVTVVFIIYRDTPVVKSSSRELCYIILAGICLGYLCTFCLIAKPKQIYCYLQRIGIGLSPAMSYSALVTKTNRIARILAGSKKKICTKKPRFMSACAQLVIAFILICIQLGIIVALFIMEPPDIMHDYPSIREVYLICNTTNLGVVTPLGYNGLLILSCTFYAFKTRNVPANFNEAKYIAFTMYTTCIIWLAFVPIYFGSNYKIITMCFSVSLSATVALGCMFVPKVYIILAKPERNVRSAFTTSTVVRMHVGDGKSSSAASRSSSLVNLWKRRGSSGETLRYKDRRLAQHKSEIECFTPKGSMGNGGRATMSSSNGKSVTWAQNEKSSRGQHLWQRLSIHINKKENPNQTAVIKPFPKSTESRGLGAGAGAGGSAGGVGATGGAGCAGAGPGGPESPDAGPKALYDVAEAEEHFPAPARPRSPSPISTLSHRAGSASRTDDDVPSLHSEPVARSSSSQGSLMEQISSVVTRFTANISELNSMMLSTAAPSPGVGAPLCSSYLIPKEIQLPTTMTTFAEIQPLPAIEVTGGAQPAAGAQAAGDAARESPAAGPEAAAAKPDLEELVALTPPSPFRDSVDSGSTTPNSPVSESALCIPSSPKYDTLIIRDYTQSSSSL

Compound	pEC50
Cc1nc2c(s1)CN(C(=O)Cn1nc(-c3ccc(C)c(C)c3)cc1-c1ccccc1)C2 [Example 7.02.090]	7.39
CCc1cc(-c2ccc(C)c(C)c2)nn1CC(=O)N1CCC(c2cc(OC)ncn2)CC1 [Example 7.02.092]	6.43
CCc1cc(-c2cccc(C)c2)nn1CC(=O)N1CC=C(c2cc(OC)ncn2)CC1 [Example 7.02.093]	6.92
COCCCc1cc(-c2ccc(F)c(C)c2)nn1CC(=O)N1CCc2nc(C)sc2CC1 [Example 7.02.103]	7.47
COCCCc1cc(-c2ccc(F)c(C)c2)nn1CC(=O)N1CCc2nc(N)sc2CC1 [Example 7.02.104]	7.32
COCCCc1cc(-c2ccc(F)c(C)c2)nn1CC(=O)N1Cc2nc(C)sc2C1 [Example 7.02.105]	6.62
CCc1cc(-c2cccc(Cl)c2)nn1CC(=O)N1CCc2nc(C)sc2CC1 [Example 7.02.109]	7.21
CCc1cc(-c2cccc(Cl)c2)nn1CC(=O)N1CCc2nc(N)sc2CC1 [Example 7.02.110]	6.81
CCc1cc(-c2cccc(Cl)c2)nn1CC(=O)N1Cc2nc(C)sc2C1 [Example 7.02.111]	6.48
CCc1cc(-c2cccc(Cl)c2)nn1CC(=O)N1CCN(c2nnc(C)o2)CC1 [Example 7.02.112]	6.39
Cc1ccc(-c2cc(-c3ccccc3)n(CC(=O)N3Cc4nc(C)sc4C3)n2)nc1 [Example 7.02.118]	6.90
Cc1nc2c(s1)CCN(C(=O)Cn1nc(-c3ccc(F)c(C)c3)cc1CC(C)C)CC2 [Example 7.02.119]	7.92
Cc1cc(-c2cc(CC(C)C)n(CC(=O)N3CCc4nc(N)sc4CC3)n2)ccc1F [Example 7.02.120]	7.68
Cc1nc2c(s1)CN(C(=O)Cn1nc(-c3ccc(F)c(C)c3)cc1CC(C)C)C2 [Example 7.02.121]	7.31
Cc1nc2c(s1)CCN(C(=O)Cn1nc(-c3ccc(C)c(C)n3)cc1-c1ccccc1)CC2 [Example 7.02.122]	7.42
Cc1ccc(-c2cc(-c3ccccc3)n(CC(=O)N3CCc4nc(N)sc4CC3)n2)nc1C [Example 7.02.123]	7.15

Compound	pEC50
Cc1nc2c(s1)CN(C(=O)Cn1nc(-c3ccc(C)c(C)n3)cc1-c1ccccc1)C2 [Example 7.02.124]	7.17
CCc1cccc(-c2cc(CC)n(CC(=O)N3Cc4nc(C)sc4C3)n2)c1 [Example 7.02.125]	6.60
Cc1nc2c(s1)CCN(C(=O)Cn1nc(-c3cc(C)c(C)cn3)cc1-c1ccccc1)CC2 [Example 7.02.126]	7.17
Cc1cnc(-c2cc(-c3ccccc3)n(CC(=O)N3CCc4nc(N)sc4CC3)n2)cc1C [Example 7.02.127]	6.70
CCc1cccc(-c2cc(CC)n(CC(=O)N3CCc4nc(C)sc4CC3)n2)c1 [Example 7.02.129]	6.81
CCc1cc(-c2cc(C)c(F)c(C)c2)nn1CC(=O)N1CCc2nc(C)sc2CC1 [Example 7.02.132]	6.73
CCc1cc(-c2cc(C)c(F)c(C)c2)nn1CC(=O)N1CCc2nc(N)sc2CC1 [Example 7.02.133]	6.56
CCc1cc(-c2ccc(F)c(C)c2)nn1CC(=O)N1CC=C(c2ncc(C)s2)CC1 [Example 7.02.135]	7.35
CCc1cc(-c2ccc(F)c(C)c2)nn1CC(=O)N1CC=C(c2cccc(OC)c2)CC1 [Example 7.02.137]	6.45
CCc1cc(-c2ccc(F)c(C)c2)nn1CC(=O)N1CCC(c2ncc(C)s2)CC1 [Example 7.02.141]	6.86
CCc1cc(-c2ccc(F)c(C)c2)nn1CC(=O)N1CCC(c2cccc(OC)c2)CC1 [Example 7.02.147]	6.24
Cc1nc(N2CCN(C(=O)Cn3nc(-c4ccc(F)c(C)c4)cc3C)CC2)no1 [Example 7.02.154]	6.97
Cc1nc2c(o1)CN(C(=O)Cn1nc(-c3ccc(F)c(C)c3)cc1C)C2 [Example 7.02.155]	7.04
Cc1cc(-c2cc(-c3ccccc3)n(CC(=O)N3CCc4nc(N)sc4CC3)n2)ncc1F [Example 7.02.156]	6.77
CCc1cc(-c2ccc(F)c(C)c2)nn1CC(=O)N1CCC(c2nnc(C)o2)CC1 [Example 7.02.157]	6.37

The next lines start with the values.

pEC50	Compound
7.55	COc1cc(C2=CCN(C(=O)Cn3nc(-c4ccc(C)c(C)c4)cc3-c3ccccc3)CC2)ncn1 [Example 7.02.087]
6.60	COc1cnc(C2CCN(C(=O)Cn3nc(-c4ccc(C)c(C)c4)cc3-c3ccccc3)CC2)nc1 [Example 7.02.088]
7.23	COc1cnc(C2CCN(C(=O)Cn3nc(-c4ccc(C)c(C)c4)cc3-c3ccccc3)CC2)nc1 [Example 7.02.089]
6.94	COc1cc(C2CCN(C(=O)Cn3nc(-c4ccc(C)c(C)c4)cc3-c3ccccc3)CC2)ncn1 [Example 7.02.091]
7.31	Cc1ccc(-c2cc(-c3ccccc3)n(CC(=O)N3CCc4nc(N)sc4CC3)n2)cc1C [Example 7.02.094]
8.22	Cc1nnc(N2CCN(C(=O)Cn3nc(-c4ccc(F)c(C)c4)cc3-c3ccccc3)CC2)o1 [Example 7.02.095]
8.00	Cc1cc(C2=CCN(C(=O)Cn3nc(-c4ccc(F)c(C)c4)cc3-c3ccccc3)CC2)ncn1 [Example 7.02.096]
8.10	Cc1nc2c(o1)CN(C(=O)Cn1nc(-c3ccc(F)c(C)c3)cc1-c1ccccc1)CC2 [Example 7.02.097]
7.92	Cc1cnc(C2CCN(C(=O)Cn3nc(-c4ccc(F)c(C)c4)cc3-c3ccccc3)CC2)o1 [Example 7.02.098]
7.74	Cc1cc(-c2cc(-c3ccccc3)n(CC(=O)N3CC=C(c4ncc(F)cn4)CC3)n2)ccc1F [Example 7.02.099]
8.40	Cc1cnc(C2=CCN(C(=O)Cn3nc(-c4ccc(F)c(C)c4)cc3-c3ccccc3)CC2)o1 [Example 7.02.100]
7.85	COc1cnc(C2=CCN(C(=O)Cn3nc(-c4ccc(F)c(C)c4)cc3-c3ccccc3)CC2)nc1 [Example 7.02.101]
7.57	Cc1cnc(C2=CCN(C(=O)Cn3nc(-c4ccc(F)c(C)c4)cc3-c3ccccc3)CC2)nc1 [Example 7.02.102]
8.00	Cc1nc2c(o1)CCN(C(=O)Cn1nc(-c3ccc(F)c(C)c3)cc1-c1ccccc1)CC2 [Example 7.02.106]
7.41	CCc1cc(-c2cccc(Cl)c2)nn1CC(=O)N1CC=C(c2ncc(C)o2)CC1 [Example 7.02.107]
6.90	CCc1cc(-c2cccc(Cl)c2)nn1CC(=O)N1CCC(c2ncc(C)o2)CC1 [Example 7.02.108]
6.20	CCc1cc(-c2cccc(Cl)c2)nn1CC(=O)N1CCC(c2nnc(C)o2)CC1 [Example 7.02.113]
7.54	Cc1nnc(C2=CCN(C(=O)Cn3nc(-c4ccc(C)c(C)c4)cc3-c3ccccc3)CC2)o1 [Example 7.02.114]
8.10	Cc1nnc(C2=CCN(C(=O)Cn3nc(-c4ccc(F)c(C)c4)cc3-c3ccccc3)CC2)o1 [Example 7.02.115]
7.68	Cc1ccc(-c2cc(-c3ccccc3)n(CC(=O)N3CCc4nc(C)sc4CC3)n2)nc1 [Example 7.02.116]
7.18	Cc1ccc(-c2cc(-c3ccccc3)n(CC(=O)N3CCc4nc(N)sc4CC3)n2)nc1 [Example 7.02.117]

pEC50	Compound
7.24	Cc1cc(-c2cc(-c3ccccc3)n(CC(=O)N3CCc4ccsc4CC3)n2)ccc1F [Example 7.02.130]
8.10	Cc1cc(-c2cc(-c3ccccc3)n(CC(=O)N3CCc4cccnc4CC3)n2)ccc1F [Example 7.02.131]
7.82	Cc1cnc(C2=CCN(C(=O)Cn3nc(-c4ccc(F)c(C)c4)cc3-c3ccccc3)CC2)s1 [Example 7.02.134]
6.85	COc1cccc(C2=CCN(C(=O)Cn3nc(-c4ccc(F)c(C)c4)cc3-c3ccccc3)CC2)c1 [Example 7.02.136]
7.36	Nc1nc2c(s1)CCN(C(=O)Cn1nc(-c3cccc(Cl)c3)cc1-c1ccccc1)CC2 [Example 7.02.138]
7.00	Cc1nnc(C2CCN(C(=O)Cn3nc(-c4cccc(Cl)c4)cc3-c3ccccc3)CC2)o1 [Example 7.02.139]
7.29	Cc1cnc(C2CCN(C(=O)Cn3nc(-c4ccc(F)c(C)c4)cc3-c3ccccc3)CC2)s1 [Example 7.02.140]
7.57	Cc1cnc(C2=CCN(C(=O)Cn3nc(-c4cccc(Cl)c4)cc3-c3ccccc3)CC2)o1 [Example 7.02.142]
7.32	Cc1nc2c(s1)CN(C(=O)Cn1nc(-c3cccc(Cl)c3)cc1-c1ccccc1)C2 [Example 7.02.143]
7.17	Cc1cnc(C2CCN(C(=O)Cn3nc(-c4cccc(Cl)c4)cc3-c3ccccc3)CC2)o1 [Example 7.02.144]
7.82	Cc1nc2c(s1)CCN(C(=O)Cn1nc(-c3cccc(Cl)c3)cc1-c1ccccc1)CC2 [Example 7.02.145]
6.53	COc1cccc(C2CCN(C(=O)Cn3nc(-c4ccc(F)c(C)c4)cc3-c3ccccc3)CC2)c1 [Example 7.02.146]
7.82	COc1cc(-c2cc(-c3ccccc3)n(CC(=O)N3CCc4nc(C)sc4CC3)n2)ccc1F [Example 7.02.148]
7.38	COc1cc(-c2cc(-c3ccccc3)n(CC(=O)N3CCc4nc(N)sc4CC3)n2)ccc1F [Example 7.02.149]
7.55	COc1cc(-c2cc(-c3ccccc3)n(CC(=O)N3Cc4nc(C)sc4C3)n2)ccc1F [Example 7.02.150]
6.68	COc1cc(-c2cc(-c3ccccc3)n(CC(=O)N3CCC(c4nnc(C)o4)CC3)n2)ccc1F [Example 7.02.151]
7.17	COc1cc(-c2cc(-c3ccccc3)n(CC(=O)N3CCC(c4ncc(C)o4)CC3)n2)ccc1F [Example 7.02.152]
7.82	COc1cc(-c2cc(-c3ccccc3)n(CC(=O)N3CC=C(c4ncc(C)o4)CC3)n2)ccc1F [Example 7.02.153]
6.94	Cc1csc(N2CCN(C(=O)Cn3nc(-c4ccc(F)c(C)c4)cc3-c3ccccc3)CC2)n1 [Example 7.02.158]
7.36	Cc1csc(N2CCN(C(=O)Cn3nc(-c4ccc(F)c(C)c4)cc3-c3ccccc3)CC2)n1 [Example 7.02.159]
